Experimental data taken from ChEMBL document CHEMBL1201862, “PubChem BioAssay data set” (2004).
One block for each compound: values may come before it. Activity calls are given as the source filed them.

Assays:
[1] = inhibitors of Vif binding to APOBEC3G peptide, primary screen, biochemical, TR-FRET, GST-Vif 1-94, biotin-A3G peptide, dose response retest (AID 1117319); assay type: functional;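 note: TR-FRET signal of purified GST-Vif binding a biotinylated A3G peptide; inhibitors lower the FRET signal by blocking Vif and A3G binding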
Caspase-6 = Caspase-6 (Homo sapiens, UniProt P55212); assay: human caspase-6 inhibitors, dose response, biochemical, VEID-R110 fluorescence, cherry-pick (AID 720632)
Protein Tat = target: T1, Protein Tat (Human immunodeficiency virus type 1 group M subtype B (isolate HXB2)(HIV-1), UniProt P04608); assay type: functional;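 note: tat binding to TAR RNA read out by fluorescence polarization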
T1 sequence (P04608 whole entry): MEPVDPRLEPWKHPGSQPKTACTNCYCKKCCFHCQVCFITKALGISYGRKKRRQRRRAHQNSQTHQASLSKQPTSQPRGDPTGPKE

Genome polyprotein = Genome polyprotein (dengue virus type 2, UniProt P29990); assay: Dengue-2 NS5 methyltransferase inhibitors, primary screen, biochemical, confirmation dose response (AID 588689); assay type: functional
[2] = THP-1 cell cytotoxicity, dose response, cytotoxicity control for Vif-APOBEC3G degradation inhibitor project, THP-1 cells (AID 1117359); assay type: functional; conditions: Human immunodeficiency virus 1, THP-1
fMet-Leu-Phe receptor = fMet-Leu-Phe receptor (Homo sapiens, UniProt P21462); assay: FPR ligands, dose response (AID 519); assay type: functional
[3] = intracellular Trypanosoma cruzi inhibitors in host cells – cell-based, plate reader, cherry-pick samples, set 3, dose response (AID 651818); assay type: functional;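 note: compounds incubated with infected cells for about four days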
[4] = inhibitors of PGC1a acetylation in cells, dose response, cell-based, cherry-picked samples (AID 720514); assay type: functional;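 note: potency may reflect raised or lowered acetylation signal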
[5] = HEK293 Cytotoxicity Assay Measured in Cell-Based System Using Plate Reader - 7071-01_Inhibitor_Dose_CherryPick_Activity_Set2.; assay type: functional
HEK293 [6] = assay: HEK293T cell cytotoxicity, dose response, cytotoxicity control, ATP luminescence, cherry-pick samples (AID 687005); assay type: functional, cell-based; conditions: Homo sapiens;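 note: cells exposed to compound for 48 hours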
HeLa = assay: HeLa cell cytotoxicity, dose response, cytotoxicity control, ATP luminescence, cherry-pick samples (AID 687004); assay type: functional, cell-based; conditions: Homo sapiens
[7] = target: Endoplasmic reticulum aminopeptidase 1 (Homo sapiens, UniProt Q9NZ08); assay: ERAP1 aminopeptidase inhibitors, dose response, biochemical, cherry-pick, set 2, plate reader (AID 743314)
[8] = target: T2, Nuclear receptor subfamily 0 group B member 1 (Homo sapiens, UniProt P51843); assay: Luminescence-based cell-based high throughput dose response assay for inhibitors of the orphan nuclear receptor subfamily 0, group B, member 1 (DAX1; NR0B1). [Related pubchem assays (depositor defined):AID504766, AID504790]; assay type: functional
T2 sequence (P51843 whole entry): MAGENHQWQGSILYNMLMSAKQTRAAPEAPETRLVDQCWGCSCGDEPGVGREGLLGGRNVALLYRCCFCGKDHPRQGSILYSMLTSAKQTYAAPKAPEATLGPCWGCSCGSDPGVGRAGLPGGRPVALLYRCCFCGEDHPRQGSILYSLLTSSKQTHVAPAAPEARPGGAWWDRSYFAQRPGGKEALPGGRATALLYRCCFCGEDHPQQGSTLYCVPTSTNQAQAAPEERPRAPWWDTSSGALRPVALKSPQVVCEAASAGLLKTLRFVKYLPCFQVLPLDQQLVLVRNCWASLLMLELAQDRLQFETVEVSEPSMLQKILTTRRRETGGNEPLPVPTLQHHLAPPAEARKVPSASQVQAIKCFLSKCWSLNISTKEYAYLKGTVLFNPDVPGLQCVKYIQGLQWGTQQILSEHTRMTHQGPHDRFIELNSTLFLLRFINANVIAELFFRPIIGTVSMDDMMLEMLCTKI

[9] = target: T3, Oxysterols receptor LXR-beta (Homo sapiens, UniProt P55055); assay: LXR agonists, Gal4 luciferase reporter, dose response, counter-screen for ssDAF-12 agonist project, cell-based, luminescence, HEK293, S. stercoralis campaign (AID 720737); assay type: functional; conditions: read-out: IC50 (the source's name)
T3 sequence (P55055 whole entry): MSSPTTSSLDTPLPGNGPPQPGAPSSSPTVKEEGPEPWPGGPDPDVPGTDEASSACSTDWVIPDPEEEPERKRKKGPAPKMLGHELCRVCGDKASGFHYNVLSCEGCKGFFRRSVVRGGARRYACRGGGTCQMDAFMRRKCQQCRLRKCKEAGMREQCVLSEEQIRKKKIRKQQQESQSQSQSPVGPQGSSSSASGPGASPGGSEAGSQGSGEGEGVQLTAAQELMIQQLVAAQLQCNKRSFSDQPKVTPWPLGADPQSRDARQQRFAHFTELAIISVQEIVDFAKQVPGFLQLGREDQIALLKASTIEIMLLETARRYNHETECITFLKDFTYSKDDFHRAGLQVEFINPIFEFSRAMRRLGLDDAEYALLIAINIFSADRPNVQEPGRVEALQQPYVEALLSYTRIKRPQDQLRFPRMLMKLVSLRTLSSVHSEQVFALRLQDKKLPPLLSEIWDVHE

HEK293 [10] = assay: cells; assay type: functional, cell-based; conditions: Homo sapiens
[11] = Luminescence-based cell-based high throughput dose response assay to identify activators of the DAF-12 from the parasite S. stercoralis (ssDAF-12).; assay type: functional
[12] = HepG2 cell cytotoxicity, dose response, cytotoxicity control, plate reader, dry powder samples (AID 1159569); assay type: functional, cell-based;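 note: inhibitor potency with signal falling toward the positive control level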
[13] = P. falciparum Dd2 growth inhibitors, dose response, SYBR Green, cherry-picked samples (AID 1159567); assay type: functional, cell-based
[14] = P. falciparum ATP4 D1247Y mutant growth inhibitors, dose response, NITD609-resistant line, SYBR Green, dry powder (AID 1159571); assay type: functional, cell-based;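 note: parasites synchronized at ring stage by sorbitol before testing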
[15] = P. falciparum 3D7-ScDHODH growth inhibitors, dose response, SYBR Green, dry powder samples (AID 1159570); assay type: functional, cell-based;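 note: parasite growth measured after 72 hours of compound exposure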
[16] = P. falciparum Dd2 growth inhibitors, dose response, SYBR Green, dry powder samples (AID 1159566); assay type: functional, cell-based;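 note: potency for growth inhibition with lower SYBR green DNA signal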
[17] = HepG2 cell cytotoxicity, dose response, cytotoxicity control, cherry-picked samples (AID 1159577); assay type: functional, cell-based
[18] = SNU-C1 cell viability reduction, dose response, CellTiter-Glo luminescence (AID 1117323); assay type: functional, cell-based
[19] = CellTiter-Glo luminescent dose response of DLD-1 viability loss (AID 1117352); assay type: functional
[20] = Concentration-dependent survival of SW480 colon cancer line, luminescence detection with CellTiter-Glo, half-maximal inhibitory concentration (AID 1117338); assay type: functional
[21] = RKO cell viability reduction, dose response, CellTiter-Glo luminescence (AID 1117322); assay type: functional
[22] = cytotoxicity toward HCT116 cells – cell-based, CellTiter-Glo luminescence, IC50, dose response (AID 1117332); assay type: functional; conditions: HCT-116
[23] = cytotoxicity toward Colo320 cells – cell-based, CellTiter-Glo luminescence, IC50, dose response (AID 1117334); assay type: functional; conditions: COLO 320
[24] = cytotoxicity toward HT-29 cells – cell-based, CellTiter-Glo luminescence, IC50, dose response (AID 1117330); assay type: functional

fMet-Leu-Phe receptor, sequence (P21462 whole entry): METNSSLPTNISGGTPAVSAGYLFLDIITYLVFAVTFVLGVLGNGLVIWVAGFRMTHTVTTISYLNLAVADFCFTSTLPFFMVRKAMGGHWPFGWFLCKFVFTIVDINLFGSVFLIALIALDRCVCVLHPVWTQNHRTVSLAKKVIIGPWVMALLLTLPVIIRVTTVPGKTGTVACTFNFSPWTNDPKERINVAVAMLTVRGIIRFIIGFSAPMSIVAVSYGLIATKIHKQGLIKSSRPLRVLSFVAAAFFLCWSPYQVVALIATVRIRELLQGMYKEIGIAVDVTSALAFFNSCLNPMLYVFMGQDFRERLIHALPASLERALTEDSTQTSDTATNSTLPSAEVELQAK
Endoplasmic reticulum aminopeptidase 1, sequence (Q9NZ08 whole entry): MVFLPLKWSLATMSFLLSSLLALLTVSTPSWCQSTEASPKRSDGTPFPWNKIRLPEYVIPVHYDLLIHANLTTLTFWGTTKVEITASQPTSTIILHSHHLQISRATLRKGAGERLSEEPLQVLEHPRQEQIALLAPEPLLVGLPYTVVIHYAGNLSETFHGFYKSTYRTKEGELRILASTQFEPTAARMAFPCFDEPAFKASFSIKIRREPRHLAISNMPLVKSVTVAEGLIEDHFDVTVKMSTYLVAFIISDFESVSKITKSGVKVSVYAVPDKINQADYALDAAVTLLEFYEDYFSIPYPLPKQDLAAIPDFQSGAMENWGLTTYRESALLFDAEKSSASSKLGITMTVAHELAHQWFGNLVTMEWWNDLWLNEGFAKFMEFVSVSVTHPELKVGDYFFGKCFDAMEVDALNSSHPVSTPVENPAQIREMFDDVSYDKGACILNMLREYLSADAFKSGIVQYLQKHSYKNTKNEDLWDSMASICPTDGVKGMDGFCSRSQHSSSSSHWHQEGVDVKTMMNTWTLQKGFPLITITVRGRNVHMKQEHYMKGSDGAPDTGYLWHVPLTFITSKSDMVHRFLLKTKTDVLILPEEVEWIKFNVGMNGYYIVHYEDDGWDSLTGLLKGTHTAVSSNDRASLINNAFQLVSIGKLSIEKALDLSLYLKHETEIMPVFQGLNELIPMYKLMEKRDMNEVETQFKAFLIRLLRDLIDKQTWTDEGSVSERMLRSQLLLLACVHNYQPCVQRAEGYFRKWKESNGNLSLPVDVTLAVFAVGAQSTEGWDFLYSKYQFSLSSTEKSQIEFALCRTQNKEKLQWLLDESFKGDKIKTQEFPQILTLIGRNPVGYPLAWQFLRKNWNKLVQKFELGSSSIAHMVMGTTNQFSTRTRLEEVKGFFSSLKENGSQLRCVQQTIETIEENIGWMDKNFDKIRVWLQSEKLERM
Caspase-6, sequence (P55212 24-179 limits assumed): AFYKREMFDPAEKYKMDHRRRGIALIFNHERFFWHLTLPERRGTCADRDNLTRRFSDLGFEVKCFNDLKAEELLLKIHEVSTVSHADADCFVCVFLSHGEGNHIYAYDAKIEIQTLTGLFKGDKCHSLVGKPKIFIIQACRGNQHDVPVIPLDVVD
Caspase-6, sequence (P55212 194-293 limits assumed): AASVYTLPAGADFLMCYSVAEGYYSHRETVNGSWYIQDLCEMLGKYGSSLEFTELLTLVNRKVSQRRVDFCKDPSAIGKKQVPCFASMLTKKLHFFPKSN
Genome polyprotein, sequence (P29990 2492-3391 limits assumed): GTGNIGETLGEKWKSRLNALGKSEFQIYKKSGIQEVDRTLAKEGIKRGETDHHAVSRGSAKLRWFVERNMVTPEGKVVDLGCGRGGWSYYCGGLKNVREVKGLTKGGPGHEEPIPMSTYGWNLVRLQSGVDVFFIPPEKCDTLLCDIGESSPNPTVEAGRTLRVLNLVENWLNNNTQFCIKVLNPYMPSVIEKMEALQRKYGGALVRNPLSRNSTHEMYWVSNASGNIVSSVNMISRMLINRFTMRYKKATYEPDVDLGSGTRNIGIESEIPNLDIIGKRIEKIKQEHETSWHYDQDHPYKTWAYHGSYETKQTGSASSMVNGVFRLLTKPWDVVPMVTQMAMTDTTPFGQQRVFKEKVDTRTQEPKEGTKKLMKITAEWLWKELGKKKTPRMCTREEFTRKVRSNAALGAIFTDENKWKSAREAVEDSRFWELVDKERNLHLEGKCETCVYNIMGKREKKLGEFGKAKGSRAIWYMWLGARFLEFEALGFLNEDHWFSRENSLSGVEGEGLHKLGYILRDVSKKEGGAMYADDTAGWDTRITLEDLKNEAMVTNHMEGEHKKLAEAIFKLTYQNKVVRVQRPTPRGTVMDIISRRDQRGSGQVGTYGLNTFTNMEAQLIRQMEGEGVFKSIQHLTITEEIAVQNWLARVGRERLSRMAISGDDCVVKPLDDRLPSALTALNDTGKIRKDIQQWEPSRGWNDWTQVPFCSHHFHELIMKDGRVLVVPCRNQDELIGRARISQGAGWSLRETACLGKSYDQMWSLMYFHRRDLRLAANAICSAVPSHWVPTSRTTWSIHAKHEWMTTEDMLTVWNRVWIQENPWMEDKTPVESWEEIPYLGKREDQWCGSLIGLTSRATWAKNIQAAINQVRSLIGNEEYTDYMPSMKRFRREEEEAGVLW

- IC50 [1]: > 100 µM (active)
- AC50 (Caspase-6): 9.9 µM (active)
- IC50 (Protein Tat): > 100 µM (active)
- IC50 (Genome polyprotein): 45.4 µM (active)
SMILES: O=C(c1ccccc1NS(=O)(=O)c1ccc([N+](=O)[O-])cc1[N+](=O)[O-])N1O[C@@H]2C=C[C@H]1C2
- CC50 [2]: 36.7 µM (active)

- Ki (fMet-Leu-Phe receptor): 31.7 µM (inactive)
SMILES: CCc1ccccc1NC(=O)C(C#N)Cc1cccnc1 (configuration not stated)

SMILES: C[C@H](CO)N1C[C@H](C)[C@H](CN(C)Cc2ccc(Oc3ccccc3)cc2)Oc2c(NC(=O)Nc3ccc4c(c3)OCO4)cccc2C1=O
- AC50 [3]: 3.78 µM (active)
- AC50 [4]: 16.9 µM (active)

SMILES: C[C@@H]1CN([C@H](C)CO)S(=O)(=O)c2ccc(C#CC3CC3)cc2O[C@H]1CN(C)CC1CCOCC1
- AC50 [5]: 15.4 µM (active)
- AC50 (HEK293 [6]): 15.4 µM (active)
- AC50 (HeLa): > 52 µM (inactive)

SMILES: CO[C@@H](CN(C)Cc1cc(F)ccc1F)[C@@H](C)CN([C@H](C)CO)S(=O)(=O)c1ccc(F)cc1
- AC50 [5]: 28.4 µM (active)
- AC50 (HEK293 [6]): 28.4 µM (active)
- AC50 (HeLa): > 52 µM (inactive)

- AC50 [7]: 9.81 µM (active)
SMILES: COc1cccc(S(=O)(=O)N(C)C[C@@H]2Oc3ncccc3C(=O)N([C@H](C)CO)C[C@@H]2C)c1

SMILES: C/C(=N\Nc1cccc2cccnc12)c1ccccc1O
- IC50 [8]: > 67.5 µM (inactive)
- EC50 [9]: > 67.5 µM (inactive)
- IC50 (HEK293 [10]): > 67.5 µM (inactive)
- IC50 [11]: > 67.5 µM (inactive)

SMILES: COc1ccc2c3c([nH]c2c1)[C@@H](CO)N(C(=O)CN(C)C)CC31CCN(CC2CCCCC2)CC1
- AC50 [12]: 23.7 µM (active)
- AC50 [13]: 904 nM (active)
- AC50 [14]: 731 nM (active)
- AC50 [15]: 137 nM (active)
- AC50 [16]: 361 nM (active)

SMILES: C/C=C/c1ccc([C@@H]2[C@@H]3CN(Cc4cccnc4)C[C@H]2N3)cc1
- AC50 [12]: 24.2 µM (active)
- AC50 [17]: > 39 µM (inactive)
- AC50 [13]: 1410 nM (active)
- AC50 [14]: 1830 nM (active)
- AC50 [15]: 1410 nM (active)
- AC50 [16]: 1270 nM (active)

SMILES: C/C(=C(/OCCOc1ccc(Cl)cc1)c1ccc(Cl)cc1Cl)n1ccnc1 [OMOCONAZOLE]
- IC50 [18]: 2.35 µM (active)
- IC50 [19]: 4.18 µM (active)
- IC50 [20]: 8.46 µM (inactive)
- IC50 [21]: > 6.67 µM (inactive)
- IC50 [22]: > 6.67 µM (inactive)
- IC50 [23]: 5.86 µM (inactive)
- IC50 [24]: > 6.67 µM (inactive)
